From patent publication US10377757B2, “Crystal form of JAK inhibitor and preparation method thereof” (CRYSTAL PHARMATECH CO., LTD, priority 2015, dated 2019)
“Also recorded” adds a separate entry of the source.

Columns and labels:
[1] = Hygroscopicity assessment by dynamic vapor sorption (DVS); format: physicochemical; conditions: for weight gain under 80% Relative Humidity: DVS, 10 mg sample, 80% RH
Protocol: Hygroscopicity of 10 mg Form I of the present disclosure was tested using dynamic vapor sorption (DVS). 5.
(§1) About hygroscopicity characterization description and definition of hygroscopicity (Chinese Pharmacopoeia 2010 edition appendix XIXJ Drug hygroscopic test guidelines, test at 25° C.+/−1° C., 80% Relative Humidity) • deliquescent: sufficient water is absorbed to form a liquid; • very hygroscopic: increase in mass is equal to or greater than 15 percent; • hygroscopic: increase in mass is less than 15 percent and equal to or greater than 2 percent; • slightly hygroscopic: increase in mass is less than 2 percent and equal to or greater than 0.2 percent. • no or almost no hygroscopic: increase in mass is less than 0.2%.
Hygroscopicity of 10 mg of phosphate crystalline Form A and phosphate crystalline Form C of the present disclosure were tested using dynamic vapor sorption (DVS). The DVS plot of phosphate crystalline Form A is shown in FIG. 23, The DVS plot of phosphate crystalline Form C is shown in FIG. 24.
as §1, with “Pharmacopoeia” for “About hygroscopicity characterization description and definition of hygroscopicity (Chinese Pharmacopoeia”

[2] = Stability assessment: storage under stress conditions, XRPD after storage; format: physicochemical; conditions: for stability (overall conclusion in words): solid form stability on storage; for Form Change: XRPD
Protocol: The crystalline Form I of the present disclosure was stored under 5° C., 25° C./60% RH and 40° C./75% relative humidity for 90 days. XRPD patterns were collected after storage.
The crystalline Form II of the present disclosure was stored under 5° C. and 25° C./60% RH. XRPD patterns were collected after storage.
Phosphate Form A of the present disclosure was stored under 5° C., 25° C./60% RH and 40° C./75% RH for 90 days. XRPD patterns were collected after storage.
Two of 10 mg of phosphate Form C were respectively opened stored at 25° C./60% RH and 40° C./75% RH for 30 days. XRPD and purity of the sample were collected after storage.

[3] = target: JAK2 (Homo sapiens, UniProt O60674); conditions: kinase detection, selectivity over JAK3; cited from earlier work
Sequence of JAK2 (O60674 whole entry): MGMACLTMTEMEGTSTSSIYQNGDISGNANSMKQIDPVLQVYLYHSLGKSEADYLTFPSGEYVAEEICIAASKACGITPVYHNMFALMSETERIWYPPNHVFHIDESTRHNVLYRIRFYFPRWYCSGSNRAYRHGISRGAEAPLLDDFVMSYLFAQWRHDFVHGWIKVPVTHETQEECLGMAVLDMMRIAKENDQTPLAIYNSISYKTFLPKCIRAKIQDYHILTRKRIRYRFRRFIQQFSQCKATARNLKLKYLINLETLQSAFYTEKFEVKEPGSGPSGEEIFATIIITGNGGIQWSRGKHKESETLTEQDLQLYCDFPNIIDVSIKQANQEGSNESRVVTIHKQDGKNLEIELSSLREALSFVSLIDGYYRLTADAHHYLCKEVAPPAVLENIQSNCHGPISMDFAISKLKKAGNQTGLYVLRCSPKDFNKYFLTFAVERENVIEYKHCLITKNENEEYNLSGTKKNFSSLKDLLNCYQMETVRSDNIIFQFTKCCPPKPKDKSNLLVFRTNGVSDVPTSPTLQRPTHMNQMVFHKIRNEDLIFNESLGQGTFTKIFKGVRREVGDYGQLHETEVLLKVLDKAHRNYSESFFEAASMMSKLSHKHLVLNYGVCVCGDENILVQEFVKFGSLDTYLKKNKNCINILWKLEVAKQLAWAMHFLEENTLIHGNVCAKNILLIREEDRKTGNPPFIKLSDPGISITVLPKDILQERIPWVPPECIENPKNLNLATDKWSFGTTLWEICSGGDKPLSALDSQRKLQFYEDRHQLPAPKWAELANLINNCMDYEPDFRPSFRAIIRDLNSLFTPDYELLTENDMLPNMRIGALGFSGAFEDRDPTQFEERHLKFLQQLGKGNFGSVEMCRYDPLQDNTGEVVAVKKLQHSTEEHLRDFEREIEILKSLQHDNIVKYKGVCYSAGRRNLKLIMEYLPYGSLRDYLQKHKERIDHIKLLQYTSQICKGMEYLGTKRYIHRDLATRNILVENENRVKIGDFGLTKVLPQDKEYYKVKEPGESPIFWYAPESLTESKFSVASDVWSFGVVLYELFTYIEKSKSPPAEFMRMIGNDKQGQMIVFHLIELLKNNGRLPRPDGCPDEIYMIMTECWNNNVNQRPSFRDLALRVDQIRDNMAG

[4] = stored at 25° C./60% RH for 90 days
[5] = stored at 40° C./75% RH for 90 days
[6] = stored at 25° C./60% RH for 30 days

stability (overall conclusion in words) [2]	weight gain under 80% Relative Humidity [1] [%]	SMILES	Form Change ([2]; stored at 5° C. for 90 days)	Form Change [2, 4]	Form Change [2, 5]	Form Change [2, 6]	also measured
good stability		CCS(=O)(=O)N1CC(CC#N)(n2cc(-c3ncnc4[nH]ccc34)cn2)C1 [Form I]	remains unchanged; also recorded: Form I remain unchanged	remains unchanged; also recorded: Form I remain unchanged	remains unchanged; also recorded: Form I remain unchanged		hygroscopicity class ([1]; Chinese Pharmacopoeia 2010 definition, 25° C.+/-1° C., 80% Relative Humidity): slightly hygroscopic (slightly hygroscopic: increase in mass is less than 2 percent and equal to or greater than 0.2 percent); weight gain under 80% Relative Humidity ([1]; listed as Form I of the compound Formula (I)): 0.44%
good stability	0.99	CCS(=O)(=O)N1CC(CC#N)(n2cc(-c3ncnc4[nH]ccc34)cn2)C1 [phosphate Form A]	remains unchanged	remains unchanged	remains unchanged		weight gain under 80% Relative Humidity ([1]; listed as phosphate Form A of the compound Formula (I)): 0.99%; Form Change ([2]; stored at 5° C. for 90 days, listed as Phosphate Crystalline Form A): Form A remain unchanged; Form Change ([2]; stored at 25° C./60% RH for 90 days, listed as Phosphate Crystalline Form A): Form A remain unchanged; Form Change ([2]; stored at 40° C./75% RH for 90 days, listed as Phosphate Crystalline Form A): Form A remain unchanged
	2.85	CCS(=O)(=O)N1CC(CC#N)(n2cc(-c3ncnc4[nH]ccc34)cn2)C1 [phosphate Form C]				Form C remain	weight gain under 80% Relative Humidity ([1]; listed as phosphate Form C of the compound Formula (I)): 2.85%; Form Change ([2]; stored at 40° C./75% RH for 30 days): Form C remain

The remaining lines, values behind:

SMILES	stability (overall conclusion in words) [2]	weight gain under 80% Relative Humidity [1] [%]	Form Change ([2]; stored at 5° C. for 90 days)	Form Change [2, 4]	Form Change [2, 5]	Form Change [2, 6]	also measured
CCS(=O)(=O)N1CC(CC#N)(n2cc(-c3ncnc4[nH]ccc34)cn2)C1 [Form II]	good stability		remains unchanged; also recorded: Form II remain unchanged			remains unchanged; also recorded: Form II remain unchanged	
CCS(=O)(=O)N1CC(CC#N)(n2cc(-c3ncnc4[nH]ccc34)cn2)C1 [Baricitinib]							inhibition strength for JAK2 relative to JAK3 [3]: 100 times
